The values that follow come from ChEMBL document CHEMBL1201862, “PubChem BioAssay data set” (2004).

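Method: 48-hour compound exposure of cells in 96-well plates, five concentrations, linear interpolation of endpoints. GI50 is the concentration that inhibits growth by half.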 Calls of active or inactive are those of the source. Rule as the data show it: active = GI50 up to about 1.1 µM and inactive = higher.

Common to all, as to assay: DTP human tumour cell line panel, 48 h
Assay [1] relates to 786-0.
Assay [2] relates to CAKI-1.
Assay [3] deals with CCRF-CEM.
Assay [4] deals with DU-145.
For assay [5], the system named is HL-60.
In assay [6] the test system is HOP-92.
Assay [7] concerns KM12.
In assay [8] the test system is LOX IMVI.
In assay [9] the test system is M14.
The subject of assay [10] is MOLT-4.
Assay [11] concerns NCI-H23.
Assay [12] deals with OVCAR-3.
Assay [13] deals with SF-268.
In assay [14] the test system is SF-539.
For assay [15], the system named is SK-MEL-2.
Assay [16] concerns U-251.
Assay [17] has as its system UACC-257.
For assay [18], the system named is UO-31.

Broadly, the GI50 is the concentration giving 50% growth inhibition. As for `COC(=O)C1=C(C(=O)OC)SC2(S1)C(C(=O)OC)=C(C(=O)OC)Sc1c2ssc1=O`, the GI50 in assay [1] is 0.456 µM (active); in [2], 1.43 µM (inactive); in assay [3], 0.076 µM (active); in [4], 0.877 µM (active); in assay [5], 0.016 µM (active); in assay [6] it was 0.826 µM (active). The GI50 in assay [7] was 4.78 µM (inactive); in assay [8] it was 0.208 µM (active); in assay [9], 1.12 µM (inactive); in assay [10], 0.353 µM (active); in assay [11], 1.78 µM (inactive); in assay [12] it was 0.904 µM (active). In addition, the GI50 in assay [13] was 2.52 µM (inactive); in assay [14] it was 1.15 µM (inactive); in assay [15] it was 1.78 µM (inactive); in assay [16] it was 2.12 µM (inactive); in assay [17], 1.51 µM (inactive); in assay [18] it was 1.63 µM (inactive).
In the case of `CC(C)C[C@H]1[C@@H](OCc2ccccc2)COS(=O)(=O)N1[C@H](C)c1ccccc1`, the GI50 in assay [1] was 23.4 µM (inactive); in assay [2], > 100 µM (inactive); in assay [3], 8.71 µM (inactive); in [4], 37.9 µM (inactive); in [5], 6.11 µM (inactive); in [6] it was > 100 µM (inactive). Besides, the GI50 in assay [7] was 47.1 µM (inactive); in assay [8], 13.4 µM (inactive); in assay [9], > 100 µM (inactive); in assay [10] it was 3.8 µM (inactive); in [11], 6.98 µM (inactive); in [12] it was 20.6 µM (inactive). Further, the GI50 was > 93.1 µM (inactive) in [13]; > 100 µM (inactive) in assay [14]; 44.6 µM (inactive) in [15]; 15.2 µM (inactive) in assay [16]; 20 µM (inactive) in [17]; 9.95 µM (inactive) in assay [18].
For `COc1cc(/C=N\c2nc(-c3ccc(NS(=O)(=O)c4ccc(Cl)c(OC)c4)cc3)cs2)ccc1O`, the GI50 in [1] is > 100 µM (inactive); in assay [2], > 100 µM (inactive); in assay [3] it was 30.1 µM (inactive); in assay [4] it was > 100 µM (inactive); in assay [5], 26.1 µM (inactive); in [6] it was 24.9 µM (inactive). The GI50 in assay [7] was 29.2 µM (inactive); in [8] it was 35.7 µM (inactive); in assay [9] it was 95.5 µM (inactive); in assay [10], 16.4 µM (inactive); in assay [11] it was 31.1 µM (inactive); in assay [12], 69.5 µM (inactive). Further, the GI50 was 37.6 µM (inactive) in [13], 47.5 µM (inactive) in assay [14], 32.2 µM (inactive) in [15] and 60.8 µM (inactive) in assay [18].
Consider `O=P(Nc1ccccc1)(Oc1ccccc1)N1CCN(c2ccccc2)CC1` (centres undefined), for which the GI50 in assay [1] is 22.1 µM (inactive); in assay [2] it was 24.8 µM (inactive); in assay [3], 26.3 µM (inactive); in [4], 19.6 µM (inactive); in [5], 25 µM (inactive); in [6], 18.7 µM (inactive). In addition, the GI50 was 17.4 µM (inactive) in assay [7]; 17.4 µM (inactive) in [8]; 15.2 µM (inactive) in [9]; 17.9 µM (inactive) in assay [10]; 19.6 µM (inactive) in assay [11]; 18.7 µM (inactive) in assay [12]. Further, the GI50 in assay [13] was 23.2 µM (inactive); in assay [14], 19.5 µM (inactive); in assay [15], 20.9 µM (inactive); in assay [16], 16.8 µM (inactive); in assay [17], 20.9 µM (inactive); in assay [18], 14.9 µM (inactive).
Regarding `CC(N/N=N/c1ccc(-c2nc3ccccc3[nH]2)cc1)C(=O)O` (centres undefined), the GI50 in assay [1] was 15.7 µM (inactive); in assay [2], 42.7 µM (inactive); in assay [3] it was 3.18 µM (inactive); in [4] it was 49.4 µM (inactive); in [5] it was 32.6 µM (inactive); in assay [6], > 100 µM (inactive). Further, the GI50 is 19.2 µM (inactive) in assay [7]; 28.2 µM (inactive) in [8]; 35.1 µM (inactive) in assay [9]; 5.01 µM (inactive) in assay [10]; 62.2 µM (inactive) in assay [11]; 18.6 µM (inactive) in [12]. The GI50 in assay [13] is 32.7 µM (inactive); in assay [14], 55 µM (inactive); in assay [15], 59.3 µM (inactive); in assay [16], 18.1 µM (inactive); in [17], > 100 µM (inactive); in assay [18], 39.1 µM (inactive).
Regarding `O=C(Cc1ccc(Cl)c(Cl)c1)N(CCc1ccc(Cl)c(Cl)c1)CCN1CCCC1`, the GI50 in assay [1] is 1.61 µM (inactive); in [2], 1.67 µM (inactive); in assay [3] it was 1.31 µM (inactive); in assay [4], 2.14 µM (inactive); in assay [5], 1.42 µM (inactive); in [6], 1.88 µM (inactive). The GI50 is 1.79 µM (inactive) in [7]; 1.73 µM (inactive) in assay [8]; 1.77 µM (inactive) in assay [9]; 1.34 µM (inactive) in assay [10]; 1.95 µM (inactive) in assay [11]; 2.26 µM (inactive) in assay [12]. Also, the GI50 was 2.15 µM (inactive) in assay [13]; 1.75 µM (inactive) in assay [14]; 1.8 µM (inactive) in [15]; 1.71 µM (inactive) in assay [16]; 1.91 µM (inactive) in assay [17]; 1.85 µM (inactive) in assay [18].
Consider `C=C1CC2(CC(c3ccccc3OC)OC(c3ccccc3OC)C2)OC1=O` (centres undefined), for which the GI50 in assay [1] was 1.63 µM (inactive); in [2], 2.47 µM (inactive); in assay [3] it was 1.71 µM (inactive); in [4], 7.8 µM (inactive); in assay [5], 0.771 µM (active); in assay [6], 1.64 µM (inactive). The GI50 was 2.27 µM (inactive) in [7]; 1.47 µM (inactive) in assay [8]; 1.72 µM (inactive) in [9]; 2.07 µM (inactive) in assay [10]; 2.1 µM (inactive) in [11]; 1.87 µM (inactive) in [12]. The GI50 was 2.55 µM (inactive) in assay [13]; 2.15 µM (inactive) in [14]; 1.91 µM (inactive) in [15]; 7.16 µM (inactive) in assay [16]; 2.07 µM (inactive) in assay [17]; 1.52 µM (inactive) in [18].
Take `O=c1[nH]c(=O)n(C2CC(O)C(CO)O2)cc1/N=N/NCCCc1ccccc1` (centres undefined): the GI50 in assay [1], in assay [2], in assay [3], in assay [4], in assay [5] and in [6] was > 100 µM (inactive) each time. Further, the GI50 in assay [7], in assay [8], in assay [9], in assay [10], in assay [11] and in [12] was > 100 µM (inactive) each time. Besides, the GI50 in assay [13] was > 100 µM (inactive); in [14], > 100 µM (inactive); in [15], > 100 µM (inactive); in assay [17] it was > 100 µM (inactive); in assay [18] it was < 0.01 µM (active).
On to `COc1ccc(/N=N/C(=O)NC(Cc2ccccc2)C(=O)O)cc1` (centres undefined), for which the GI50 was > 100 µM (inactive) in assay [1]; > 100 µM (inactive) in assay [2]; > 100 µM (inactive) in assay [3]; > 100 µM (inactive) in assay [4]; > 100 µM (inactive) in assay [5]; 28.2 µM (inactive) in assay [6]. Also, the GI50 in [7], in assay [8], in assay [9], in assay [10], in assay [11] and in [12] was > 100 µM (inactive) throughout. Besides, the GI50 in assay [13], in assay [14], in assay [15], in assay [16], in assay [17] and in assay [18] was > 100 µM (inactive) in each case.
As to `CC1(C)CC2=NC(SSC3=C(C#N)C(c4ccc(Br)cc4)C4=C(O)CC(C)(C)CC4=N3)=C(C#N)C(c3ccc(Br)cc3)C2=C(O)C1` (centres undefined), the GI50 in assay [1] was > 100 µM (inactive); in assay [2], > 100 µM (inactive); in assay [3], > 100 µM (inactive); in assay [4], > 100 µM (inactive); in assay [5], 46.6 µM (inactive); in assay [6], 70.6 µM (inactive). Besides, the GI50 in [7] was > 100 µM (inactive); in [8], > 100 µM (inactive); in assay [9] it was > 100 µM (inactive); in [10], 59 µM (inactive); in assay [11] it was > 100 µM (inactive); in assay [12], > 100 µM (inactive). In addition, the GI50 in assay [13], in assay [14], in assay [15], in assay [16], in [17] and in [18] was > 100 µM (inactive) throughout.
As for `CN1CCCCC1CCN1c2ccccc2Sc2ccc([S+](C)[O-])cc21` (centres undefined) [MESORIDAZINE], the GI50 in [1], in assay [2], in assay [3], in [4], in [5] and in assay [6] was > 100 µM (inactive) in each case. Also, the GI50 in assay [7], in assay [8], in assay [9], in assay [10], in [11] and in assay [12] was > 100 µM (inactive) in each case. For the same compound, the GI50 in assay [13], in assay [14], in assay [15], in [16] and in assay [17] was > 100 µM (inactive) each time.
